What all share (format): biochemical
In experiment [1] the test system is β-glucosidase BGII of A. oryzae (CBS 12559), exocellular, molecular mass about 30,000. Briefly: Inhibition of β-glucosidase BGII activity by glucose or δ-gluconolactone, PNPG as substrate. The note with it: PNPG 4 mM, 20 minutes at 40° C. How it is done: (§1) The assay of the β-glucosidase activity is carried out by incubating, for 20 minutes at 40° C., 1 volume of enzymatic sample with 1 volume of p-nitrophenol β-D-glucoside (PNPG) (4 mM in 100 mM acetate buffer, pH 4.4). The quantity of PNP (pnitrophenol) liberated is estimated by adding 6 volumes of 0.1 M Na2 CO3 and monitoring the absorbance reading at 400 nm. The enzymatic activity is expressed in nanokatals per ml (nkat/ml) of enzymatic solution. One nanokatal corresponds to the number of nanomoles of PNP liberated per second under the abovementioned conditions.
(§2) The residual enzymatic activity is estimated after incubating the mixture for 20 minutes at 40° C.

Experiment [2] concerns β-glucosidase BGI of A. oryzae (CBS 12559), molecular mass greater than 130,000. Briefly: Inhibition of β-glucosidase BGI activity by glucose or δ-gluconolactone, PNPG as substrate. How it is done: as §1, §2
In experiment [3] the target is T1, β-glucosidase of A. niger purified from the KLERZYME enzymatic preparation (Aspergillus niger, UniProt A2RAL4).
T1 construct: purchased GIST-BROCADES, SECLIN, FRANCE
The experiment can be described thus: Inhibition of KLERZYME β-glucosidase activity by glucose or δ-gluconolactone, PNPG as substrate. How it is done:
as §1, §2

A word on the Ki: it is the dissociation constant of the complex between target and ligand, obtained from inhibition or displacement. The term remaining activity denotes what remains of the control signal, in per cent.

T1 sequence (A2RAL4 20-860): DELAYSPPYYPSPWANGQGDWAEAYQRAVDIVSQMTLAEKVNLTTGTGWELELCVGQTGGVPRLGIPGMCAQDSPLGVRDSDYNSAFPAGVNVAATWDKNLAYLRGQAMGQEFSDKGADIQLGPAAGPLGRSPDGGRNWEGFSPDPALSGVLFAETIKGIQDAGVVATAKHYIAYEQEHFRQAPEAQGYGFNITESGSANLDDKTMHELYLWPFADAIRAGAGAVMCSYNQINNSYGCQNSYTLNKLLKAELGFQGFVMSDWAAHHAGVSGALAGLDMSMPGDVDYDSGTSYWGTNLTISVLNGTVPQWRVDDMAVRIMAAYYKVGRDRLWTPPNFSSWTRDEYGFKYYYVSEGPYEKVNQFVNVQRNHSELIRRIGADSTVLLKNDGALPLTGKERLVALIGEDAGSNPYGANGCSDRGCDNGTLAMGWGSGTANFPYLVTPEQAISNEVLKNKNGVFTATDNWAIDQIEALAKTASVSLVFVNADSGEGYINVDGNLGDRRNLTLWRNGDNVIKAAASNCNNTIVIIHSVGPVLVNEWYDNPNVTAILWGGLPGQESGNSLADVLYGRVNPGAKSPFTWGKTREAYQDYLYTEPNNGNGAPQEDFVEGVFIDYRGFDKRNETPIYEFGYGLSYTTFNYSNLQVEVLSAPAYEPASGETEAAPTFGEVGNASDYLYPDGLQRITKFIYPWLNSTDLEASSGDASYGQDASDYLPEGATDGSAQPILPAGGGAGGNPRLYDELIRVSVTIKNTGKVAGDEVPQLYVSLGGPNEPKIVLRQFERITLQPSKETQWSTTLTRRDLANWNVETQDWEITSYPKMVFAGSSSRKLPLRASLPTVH

For the molecule `O=C1O[C@H](CO)[C@@H](O)[C@H](O)[C@H]1O` [gluconolactone, δ-gluconolactone], the “activity retained in the presence of gluconolactone” value in experiment [1] (1 g/l of gluconolactone) was “more than 30%”; in experiment [1] (10 g/l of gluconolactone), 20%. The “inhibition in the presence of gluconolactone” value is reported as “practically completely inhibited” in experiment [2] (1 g/l of gluconolactone, PNPG 4 mM, 20 minutes at 40° C.) and “practically completely inhibited” in experiment [3] (KLERZYME β-glucosidase, 1 g/l of gluconolactone, PNPG 4 mM, 20 minutes at 40° C.).

In the case of `OC[C@H]1OC(O)[C@H](O)[C@@H](O)[C@@H]1O` (some centres unmarked) [glucose], the “activity retained in the presence of glucose” value in experiment [1] (25 g/l of glucose) was “about 80%”. Besides, the “inhibition in the presence of glucose” value in experiment [1] (100 g/l of glucose) was 57%; in experiment [2] (50 g/l of glucose, PNPG 4 mM, 20 minutes at 40° C.), “practically completely inhibited”; in experiment [3] (KLERZYME β-glucosidase, 50 g/l of glucose, PNPG 4 mM, 20 minutes at 40° C.) it was “practically completely inhibited”. For the same molecule, in experiment [2] (25 g/l of glucose, PNPG 4 mM, 20 minutes at 40° C.), the “activity remaining in the presence of glucose” value is “about 15%”. For the same molecule, in experiment [2] (read-out: inhibition constant (Ki) for glucose, with respect to PNPG, Lineweaver-Burk representation, competitive inhibitor), the Ki worked out at 3.5 mM. Also, the remaining activity at 25000 µg/mL in experiment [3] (20 min, pH 4.4, read-out: activity remaining in the presence of glucose) is approximately 10%.

For the origin of these results see patent US6087131A, “β-glucosidase from filamentous fungi, and uses thereof” (Institut National de la Recherche Agronomique - I.N.R.A., priority 1995, dated 2000).
